Measured values: US10799461B2 (priority 2004, dated 2020)

Legend:
[1] = cited from earlier work
[2] = tested on: MDA-MB-468 human breast adenocarcinoma cells; experiment: Colorimetric cytotoxicity (MTS) assay, minicell-mediated drug delivery; format: cell-based; conditions: MDA-MB-468 cells, within 6 days after treatment
Protocol: A colorimetric cytotoxicity assay (Promega; CellTiter 96 Aqueous One™) was used. […] MDA-MB 468 cells were seeded at 5×10^6 cells in T75 flasks and incubated for 48 hrs to obtain ˜1×10^7 cells/flask. The media was changed and cells were treated with 10^9 non-targetedminicellsDOX or ^EGFRMinicellsDOX. Free Doxorubicin (50 ng/ml) was also included as a positive control. The cells were incubated for 24 hrs, washed thoroughly with 3 changes of PBS and trypsinized. Viable cells were counted in a haemocytometer using the trypan blue exclusion method. 1×10^4 cells/ml per well were aliqouted into 24-well plates (6 wells per treatment) and incubated for 3, 4, 5, and 6 days with media changes everyday. MTS assay was performed at each time point according to the manufacturers instructions. Briefly, 100 μL of MTS reagent was added to each well and color development was monitored over 2.5 hrs to 4 hrs. 100 μL from each well was transferred to a 96-well plate and the absorbance was read at 490 nm.

[3] = Reaction at the tail vein injection site in xenograft mice (Example 7); format: in vivo, athymic nude mice
Protocol: The experiment was designed as follows. Group 1 (control) received no treatment. Group 2 (control) received free Doxorubicin (5 μg/gm of mouse body weight) intratumorally. This control was included to determine the effect of free Doxorubicin on tumor cells and to assess toxic side-effects. Group 3 (control) was the same as group 2, except that the Doxorubicin was administered intravenously. Group 4 (control) received the anti-O antigen/anti-EGFR BsAb and free Doxorubicin intravenously to show the effect of BsAb in the absence of minicells. […] Groups 7 and 8 received EGFR-targeted ^EGFRMinicellsDOX intravenously and intratumorally, respectively, to determine if receptor-targeted, drug-packaged minicells could effect tumor stabilization. […] Minicells were administered at a dose of 10^8 and all treatments were given on days 17, 24, 27 and 56 post-xenograft establishment. All measurements were performed by an investigator who was blinded to the treatments administered. Statistical analysis was performed by analysis of variance (ANOVA) and P<0.05 was considered to be statistically significant.

[4] = tested on: human breast cancer xenografts; experiment: Human breast cancer xenograft in nude mice, Paclitaxel minicells (Example 8); format: in vivo; conditions: 1×10^8 minicells or 400 μg free Paclitaxel, intravenously or intratumorally, days 15, 21, 26, 29 and 33
Protocol: Human breast adenocarcinoma cells (MDA-MB-468, ATCC; human mammary epithelial cells; non-phagocytic) were grown in tissue culture to full confluency in T-75 flasks in RPMI 1640 medium supplemented with 5% Bovine Calf Serum (GIBCO-BRL Life Technologies, Invitrogen Corporation, Carlsbad, Calif., USA) and glutamine (Invitrogen) in a humidified atmosphere of 95% air and 5% CO2 at 37° C. 1×10^6 cells in 50 uL serum-free media together with 50 uL growth factor reduced matrigel (BD Biosciences, Franklin Lakes, N.J., USA) were injected subcutaneously between the shoulder blades of each mouse using a 23-gauge needle. The tumors were measured twice a week using an electronic digital caliper (Mitutoyo, Japan, precision to 0.001) and mean tumor volume was calculated using the formula, length (mm)×width^2 (mm)×0.5=volume (mm^3). 16 days post-implantation, the tumors reached volumes between 50 mm^3 and 80 mm^3, and mice were randomized to seven different groups of 11 per group.
The experiment shown in example 7 was repeated using ^EGFRminicellsPaclitaxel as the experimental treatment. […]

Compound: CC[C@]1(O)C[C@@H]2CN(CCc3c([nH]c4ccccc34)[C@@](C(=O)OC)(c3cc4c(cc3OC)N(C)[C@H]3[C@@](O)(C(=O)OC)[C@H](OC(C)=O)[C@]5(CC)C=CCN6CC[C@]43[C@@H]65)C2)C1 [Vinblastine]
- solubility in water [1]: low solubility in water

Compound: COc1cccc2c1C(=O)c1c(O)c3c(c(O)c1C2=O)C[C@@](O)(C(=O)CO)C[C@@H]3O[C@H]1C[C@H](N)[C@H](O)[C@H](C)O1 [free Doxorubicin, Doxorubicin]
- cell viability [2]: about 30%
- reaction at the site of injection [3]: severe reaction at the site of the injection

Compound: CC(=O)O[C@H]1C(=O)[C@@]2(C)[C@H]([C@H](OC(=O)c3ccccc3)[C@]3(O)C[C@H](OC(=O)[C@H](O)[C@@H](NC(=O)c4ccccc4)c4ccccc4)C(C)=C1C3(C)C)[C@]1(OC(C)=O)CO[C@@H]1C[C@@H]2O [free paclitaxel, Paclitaxel]
- tumor stabilization/regression [4]: negligible effect on tumor growth
